Literature values in patent US8618345B2 (priority 2006, dated 2013).

Columns and labels:
[1] = ratio to inorganic arsenic (arsenic trioxide)
[2] = in vivo

Molecule	toxicity compared with that of inorganic arsenic (arsenic trioxide) [1]	demethylation if accumulated in the body [2]	half life of a substance in the body (BHT) [2]
C[As+](C)(C)CC(=O)[O-] [arsenobetaine]	approximately 1/300	no demethylation	3.5 h
arsenic trioxide [inorganic arsenic, reference compound]	–	–	28 h
